Test results reported in US11564911B2, “Small molecule dual-inhibitors of TRPV4 and TRPA1 for sanitizing and anesthetizing” (Duke University, priority 2016, dated 2023).

Columns and labels:
[1] = Compound concentration in tissues/organs and plasma by LC-MS/MS after i.p. injection; type: in vivo, mouse; settings: 10 mg/kg i.p.; for compound concentration in liver and kidney / compound concentration in plasma / concentration at 1 h: 1 h; for concentration at 1 h: mouse, heart, brain, brainstem, trigeminal ganglion, skin, intraperitoneal
Experimental: Mice were treated with 10 mg/kg i.p. of the respective inhibitor. Post-euthanasia harvested tissue was frozen in liquid nitrogen and stored at −80° C. for further analysis.
Frozen tissue samples were partially thawed and cut into 1 mm slices, 5-15 mg tissue, 2-fold excess water (mass/vol.), 6-fold excess acetonitrile (16- . . . compounds) or methanol (GSK205) containing appropriate amount of internal standard, and 2.5 mm zirconia/silica bead (Biospec Products Inc.) were added to 500-μL polypropyl-ene (PP) conical tube, homogenized in a Fast-Prep apparatus (Thermo-Savant) at speed “4” for 20 sec at room temp, and centrifuged at 13,600 g for 5 min at room temp. Depending on the expected concentration range of the measured compound, the supernatant was diluted 1/4-1/20 (in Mobile phase A, see below) and placed in autosampler for LC-MS/MS analysis.
The LC-MS/MS assay for 16- . . . compounds and GSK205 was developed on an Agilent 1200 series LC system interfaced with Applied Biosystems API 5500QTrap, a hybrid triple quadruple-linear trap MS/MS spectrometer.
Analyst (version 1.6.1) software was used for mass parameters tuning, data acquisition, and quantification. LC column: 3×4 mm RP C18 (Phenomenex, AJ0-4287) was operated at 35° C. Mobile phase A: 0.1% formic acid, 2% acetonitrile, in LC/MS-grade water; mobile phase B: acetonitrile; flow rate: 1 mL/min, 1:1 MS/MS:waste split. Run time was 4 min. Diverter valve was used to send flow to MS/MS only between 1.2 and 2.5 min. The elution gradi-ent was: 0-0.5 min, 1% B; 0.5-1.2 min, 1-95% B; 1.2-1.5 min, 95% B; 1.5-1.6 min, 95-1% B. Autosampler was oper-ated at 4° C.; injection volume was kept at 10-50 μL. Electrospray ionization (ESI) source parameters were: positive ionization mode, curtain gas flow=30, ionization potential=5500 V, temperature=500° C., nebulizing gas 1 flow=30, nebulizing gas 2=30, declustering potential=20 V. 16- . . . compounds and GSK205 were individually infused as 100 nM solutions in 50% A/50% B at 10 μL/min flow rate and parameters optimized to provide maximal ion count for “parent” and collision-produced (“daughter”) MS/MS ions. Parent/daughter quantifier [qualifier] ions utilized: GSK205 (401.1/280[370]), 16-8 (400.1/279.1[91.1], 16-16 (387.1/280[105]), 16-18 (415.2/280[370], 16-19 (414.1/279.2[91.1]. Standard (analyte of interest)/internal standard pairs utilized: GSK205/16-16, 16-8/16-16, 16-18/GSK205, 16-19/16-8.
Calibration samples (n=6) were prepared by adding pure standard of the measured compound to tissue homogenate (tissue+2-fold excess water, mass/vol) in the appropriate range needed for the particular dosing regime. Organs studied were analyzed alongside the study samples. The following are typical ranges used (the lower value representing also the LLOQ at 80% accuracy limit, all other calibrator levels at 85% accuracy limit): 0.38-6 nM (plasma), 6-100 nM (skin), 6-48 nM (heart), 7.5-120 nM (brain), 19-300 or 1500-24000 nM (liver), 56-900 or 1500-12000 nM (kidney), 500-8000 nM (fat). Peak integration, calibration, and quantification was performed within Analyst software. The response of the peak area standard/int. std. to nominal concentration was linear with r=0.999 or better.

[2] = tested on: mouse paw-pad skin, UVB-photodermatitis; assay: UVB-exposed paw-pad skin after topical GSK205: histopathology and mediators; type: in vivo
Experimental: GSK205 topical treatment: A viscous solution of 68% EtOH/5% glycerol plus 1 mM or 5 mM GSK205 (none for control) was applied to hindpaws by rubbing in 20 μL, applied at time-points 1 hour and again 10 min before UV exposure.
Routine procedures were followed as described previously (Chen et al., 2009). Mice were perfused transcardially with 30 mL PBS, followed by 30 mL 4% paraformaldehyde. Tissues, including the L5 DRGs (bilateral), and footpad preparations, were dissected and post-fixed in 4% paraformaldehyde. Tissue blocks were further cryoprotected in 30% sucrose in PBS for 24-48 hours. For mouse TRPV4, keratin-specific antibodies, phospho-ERK, IL-6, IL-1β, CXCL5 and caspase-1, tissue was prepared as frozen blocks and subsequently sectioned on a cryostat. For CD68, CD15 (neutrophil elastase) and CD3, mouse skin was prepared by 2% PFA perfusion. Footpad and DRG sections (both at 6-10 μm) were thaw-mounted, blocked with 5% normal goat serum (NGS; Jackson), then incubated overnight at 4° C. with the following primary antibodies: rabbit anti-TRPV4 (1:300; Abcam), mouse anti-keratin 14 (1:300; Abcam against C-terminal peptide beyond residue 850); rabbit anti-keratin 14 (1:1000; Fuchs-Lab), rabbit anti-phosph-ERK1/2 (1:500; Cell signaling technologies), goat anti-IL-1β (1:800; Abcam), goat anti-IL-6 (1:200; Santa Cruz Biotechnology Inc); rabbit anti-caspase-1 (1:200; Biovision Research Products, CA); goat anti-mouse LIX/CXCL5 (1:200; R&D Systems Inc), anti-CD68, anti-[…], and anti-CD3 (AbDSerotec). Immunodetection was accomplished with appropriate fluorescently-labeled secondary antibodies (AlexaFluor595, AlexaFluor488-conjugated antibodies at 1:600; Invitrogen; for CD15 biotinylated secondary antibody from donkey, 1:400 followed by rhodamine-streptavidine 1:250), or with peroxidase-linked detection reagents (for CD68) for 2 hours at room-temperature. Sections were rinsed, mounted, and cover-slipped with fluoromount (Sigma). Digital micrographs were obtained using a BX61 Olympus upright microscope, also with a Zeiss LSM510 confocal, both equipped with high-res CCD camera, and acquired with constant exposure settings, using ISEE or Zeiss Zen software. Morphometric analysis was conducted using ImageJ freeware (v1.45) with tailored regions-of-interest that spared the nuclear compartment. ImageJ was also used for determination of DRG surface area.

[3] = UVB permeation of foot-pad skin; set-up: species or system mouse; settings: topically applied, vs vehicle
Experimental: The UV LED was powered with 20 mA of current, resulting in 500 μW of optical power in a circular focal spot 1.5 mm in diameter, with 70% of the total flux in a 0.5 mm beam radius. The UV optical power transmitted through the sample was detected by a Hamamatsu S127-66BR UV detector, and the output of the photodetector was measured using a Keithley 236 source measure unit. Next, the foot-pad epidermis of a mouse was measured for UV transmission by placing it on a quartz coverslip and exposure to the UV beam. The vehicle-control group was treated with the alcohol and glycerol solution only. Another control group consisted of a commercially-available SPF100 preparation sunscreen in form of a cream, which was applied similar to the vehicle-control. The data for the GSK205 and sunscreen was normalized to this control data.

Structure (SMILES)	compound concentration in liver and kidney [1]	compound concentration in plasma [1]	concentration at the 6 h time-point compared to the 1 h time-point ([1]; several organs)	concentration at the 24 h time-point ([1]; several organs)	concentration at 1 h [1] [nM]	concentration in fat and pancreas after one hour [1]	CXCL5 upregulation in UVB-exposed footpad ([2]; topical 5 mM GSK205)	IL-1β upregulation in UVB-exposed mouse skin ([2]; topical 5 mM GSK205)	IL-6 upregulation in UVB-exposed footpad ([2]; topical 5 mM GSK205)	histopathology of UVB-exposed paw skin ([2]; topical 5 mM GSK205)	Edn1 mRNA-expression in UVB-exposed paw-pad skin ([2]; topical 5 mM GSK205, 2 h and 24 h)	UVB permeation of paw-pad skin [3]
CCN(CCc1ccc(Nc2nc(-c3ccccc3)cs2)cc1)Cc1ccccc1 [Compound 16-19]	micromolar/submicromolar	virtually undetectable	10-20 fold	lower than at the 6 h but higher than at the 1 h time-point	< 100							
CN(CCc1ccc(Nc2nc(-c3ccccc3)cs2)cc1)Cc1ccccc1 [Compound 16-8]	micromolar/submicromolar	virtually undetectable			< 100	above its IC50						
CN(CCc1ccc(Nc2nc(-c3cccnc3)cs2)cc1)Cc1ccccc1 [GSK205]							significant blocks	failed to upregulate	significant blocks	virtual elimination of inflammation	unchanged	equal UVB permeation
